Where two headings read alike, the source gives them in different places.

The IC50 is the midpoint of a concentration-inhibition curve. In general, GI50 refers to the concentration that inhibits growth by half.

Test [1] relates to U87MG Human Glioblastoma Cancer Cell. Put plainly: U87MG cell viability (SRB assay). To be noted: 72 hours, read-out: IC50 for inhibition of cell growth. The class given is cell-based. How it is done: The following protocol was used to measure the effects of atropisomers A-1 and A-2 on U87MG cell viability. U87MG cells were grown in their recommended growth media/supplements (ATCC). Cells were seeded at a concentration of 5000 cells per well into 96 well plates overnight at 37° C., 5% CO2. Cells were treated with relevant concentrations of test compound for 72 hours. After 72 h incubation, viability was established using sulforhodamine B (SRB) colorimetric assay. Percentage viability was calculated against the mean of the DMSO treated control samples, and IC50 values for inhibition of cell growth were calculated using GraphPad Prism software by nonlinear regression (4 parameter logistic equation).
(Sulforhodamine B stains cellular protein and so reports cell mass.)

The test system of a further test is A549. The experiment in a line: Cancer cell line panel proliferation (CellTiter-Glo). The class given is cell-based. Conditions: A549, Lung, 72 hours. The procedure:
(§1) Screening against diverse cancer cell lines was performed to identify tumour types displaying sensitivity to atropisomers A-1 and A-2. A panel of 48 cancer-derived cell lines was screened in a high-throughput proliferation assay using dilutions of atropisomers A-1/A-2. Cell lines that were screened included those representing cancer of the pancreas, large intestine/colorectum, lung, brain and nerves, and lymphoma and leukaemia cell lines. Cell lines were treated with serial half-log dilutions of compound and assayed 72 hours later for proliferation using CellTiter-Glo Assay (Promega). IC50 values were calculated by fitting the dose-response data using a nonlinear regression model.

The test system of a further test is BxPC-3. The description is as above. To be noted: BxPC-3, Pancreas, 72 hours. It counts as cell-based. How it is done: as §1
A further test deals with Capan-1. The test is described as above. It counts as cell-based. Conditions: Capan-1, Pancreas, 72 hours. The procedure: as §1
The next test relates to KG-1. Described as above. It counts as cell-based. Conditions: KG-1, Blood/Leukaemia, 72 hours. The procedure: as §1
A further test concerns MV-4-11. Described as above. The class given is cell-based. Conditions: MV-4-11, Blood/Leukaemia, 72 hours. How it is done: as §1
The next test deals with NCI-H1975. The test is described as above. The class given is cell-based. To be noted: NCI-H1975, Lung, 72 hours. The procedure:
as §1

A further test deals with NCI-H460. The test is described as above. It counts as cell-based. To be noted: NCI-H460, Lung, 72 hours. How it is done:
as §1

The next test deals with OCI-LY-19. The description is as above. The class given is cell-based. To be noted: OCI-LY-19, Blood/Lymphoma, 72 hours. The procedure: as §1
The next test has as its system PANC-1. The test is described as above. Conditions: PANC-1, Pancreas, 72 hours. It counts as cell-based. How it is done: as §1
For the next test, the system named is Ramos. Described as above. The class given is cell-based. To be noted: Blood/Lymphoma, 72 hours. The procedure: as §1
A further test relates to SW480. The description is as above. The class given is cell-based. Conditions: SW480, Large intestine/Colorectum, 72 hours. How it is done: as §1
In a further test the test system is SW620. The description is as above. Conditions: SW620, Large intestine/Colorectum, 72 hours. It counts as cell-based. The procedure:
as §1

The subject of the next test is T98G. Described as above. It counts as cell-based. To be noted: Brain&Nerves, 72 hours. The procedure:
as §1

In the next test the test system is WSU-DLCL2. The description is as above. Conditions: WSU-DLCL2, Blood/Lymphoma, 72 hours. It counts as cell-based. How it is done:
as §1

Test [2] relates to HeLa cells engineered to inducibly express oncogenic KRasG12V. The experiment in a line: Wild-type versus KRAS HeLa cell viability (Cell Titre Blue). The class given is cell-based. To be noted: Homo sapiens, KRAS G12V transgene, 72 hours. How it is done: (§2) Thus, atropisomer A-2 was tested on HeLa cells engineered to inducibly express wild-type or oncogenic […] transgenes using the FLP-in/T-Rex system (Invitrogen). Cells were plated, and then treated with or without doxycycline to induce transgene expression, and then treated with serially-diluted atropisomer A-2. After 72 hours of incubation, cell viability was assessed using the Cell Titre Blue reagent (Promega) and a BMG Pherastar plate reader. The effect of PBD inhibition on cell viability with either wild-type or oncogenic G12V KRAS was assessed using GraphPad Prism.

Test [3] concerns HeLa cells engineered to inducibly express wild-type KRAS. The description is as above. It counts as cell-based. To be noted: Homo sapiens, wild-type KRAS transgene, 72 hours, read-out: WT GI50. The procedure:
as §2

In test [4] the target is T1, panel of ninety-seven kinases (Homo sapiens, UniProt P11309).
T1 construct: purchased DiscoverX; host or cells: E. coli (BL21-derived, T7 phage display) or HEK-293
Put plainly: DiscoverX KinomeScreen competition binding assay (kinase selectivity panel). Conditions: PIM1; screened at 3000 nM. How it is done:
This has been investigated by testing atropisomer A-2 for off-target activity against a panel of ninety-seven kinases distributed across the kinome at a concentration of 3 μM using the DiscoverX KinomeScreen assay. The DiscoverX KinomeScreen assay is a site-directed competition binding assay which measures the binding affinity of a compound to a kinase, by use of a solid supported control compound which can bind or capture the kinases in solution. In the absence of a kinase-inhibitor test compound, all of the kinase will bind to the solid support. If a kinase-inhibitor test compound is added to the assay mix, the amount of kinase binding to the solid support will be reduced, the extent of reduction being dependent on the potency of the test compound as a kinase inhibitor. […] For most assays, kinase-tagged T7 phage strains were grown in parallel in 24-well blocks in an E. coli host derived from the BL21 strain. E. coli were grown to log-phase and infected with T7 phage from a frozen stock (multiplicity of infection=0.4) and incubated with shaking at 32° C. until lysis (90-150 minutes). The lysates were centrifuged (6,000×g) and filtered (0.2 μm) to remove cell debris. The remaining kinases were produced in HEK-293 cells and subsequently tagged with DNA for qPCR detection. Streptavidin-coated magnetic beads were treated with biotinylated small molecule ligands for 30 minutes at room temperature to generate affinity resins for kinase assays. The liganded beads were blocked with excess biotin and washed with blocking buffer (SeaBlock (Pierce), 1% BSA, 0.05% Tween 20, 1 mM DTT) to remove unbound ligand and to reduce non-specific phage binding. […] Test compounds were prepared as 40× stocks in 100% DMSO and directly diluted into the assay. All reactions were performed in polypropylene 384-well plates in a final volume of 0.02 ml. […] The beads were then re-suspended in elution buffer (1×PBS, 0.05% Tween 20, 0.5 μM non-biotinylated affinity ligand) and incubated at room temperature with shaking for 30 minutes. The kinase concentration in the eluates was measured by qPCR. Compounds that bind the kinase active site and directly (sterically) or indirectly (allosterically) prevent kinase binding to the immobilized ligand, will reduce the amount of kinase captured on the solid support. […] The strength of binding of the test molecule to the kinase can be expressed as the percent control (% Ctrl) The compound(s) were screened at 3000 nM concentration, and results for primary screen binding interactions are reported as ‘% Ctrl’, where lower numbers indicate stronger hits in the matrix on the following page(s). [formula] • negative control=DMSO (100% Ctrl) • positive control=control compound (0% Ctrl)

In the case of `CN(C)CCNC(=O)c1ccc(-c2ccc(-c3ccc(Cl)cc3)n2-c2ccccc2C(F)(F)F)cc1` (single isomer, unassigned; atropisomer a) [Atropisomer A-1], the IC50 was 4600 nM in test [1]; 9190 nM in the test with A549; 6970 nM in the test on BxPC-3; over 10000 nM in the test on Capan-1; over 10000 nM with KG-1; 6490 nM in the test on MV-4-11. Moreover, the IC50 in the test on NCI-H1975 is 5140 nM; in the test on NCI-H460 it was 8130 nM; with OCI-LY-19 it was 6670 nM; in the test on PANC-1 it was over 10000 nM; with Ramos, 3990 nM; in the test with SW480 it was 7550 nM. In addition, the IC50 worked out at 8350 nM in the test with SW620, 5260 nM in the test with T98G and 6740 nM in the test with WSU-DLCL2.

With `CN(C)CCNC(=O)c1ccc(-c2ccc(-c3ccc(Cl)cc3)n2-c2ccccc2C(F)(F)F)cc1` (single isomer, unassigned) [Atropisomer A-2], the IC50 in test [1] (Homo sapiens, U-87 MG) is 220 nM; in the test on A549 (Homo sapiens), 300 nM; with BxPC-3 (Homo sapiens), 300 nM; in the test with Capan-1 (Homo sapiens) it was 1230 nM; with KG-1 (Homo sapiens), 460 nM; in the test with MV-4-11 (Homo sapiens, MV4-11), 280 nM. Besides, the IC50 with NCI-H1975 (Homo sapiens) was found to be 630 nM; in the test with NCI-H460 (Homo sapiens) it was 300 nM; in the test with OCI-LY-19 (Homo sapiens, OCI-LY19), 220 nM; in the test with PANC-1 (Homo sapiens) it was 830 nM; in the test with Ramos (Homo sapiens) it was 340 nM; in the test with SW480 (Homo sapiens) it was 870 nM. Besides, the IC50 with SW620 (Homo sapiens, SW-620) stood at 190 nM; with T98G (Homo sapiens), 280 nM; in the test with WSU-DLCL2 (Homo sapiens, WSUDLCL2), 360 nM. The GI50 was determined as 2.08 nM in [2] and 3.01 nM in test [3]. Besides, in test [4], the “% Ctrl @ 3 μM” value is recorded as 99 % Ctrl.

The record behind these values is patent US12637424B2, “Pharmaceutical salt of an arylpyrrole derivative” (SENTINEL ONCOLOGY LIMITED, priority 2020, dated 2026).
